Experiments:
[1] = Reversed-phase HPLC retention; assay type: physicochemical; details: chromatographic, C-18 column

## cyclo(FΦRRRRQ) [Peptide 11]
[1]
  Retention time by reversed-phase HPLC (measure of overall hydrophobicity): virtually identical retention times

## cyclo[(pCAP)FΦRRRRQ] (head to tail) [cyclic pCAP]
MCF-7 and HEK293 cells
  Intracellular CAP fluorescence after pretreatment with 1 mM sodium pervanadate: dramatically reduced
